From paper PMC7385359
“And” between values parts separate entries of the source, which are not always exact repeats. Equal entries are not always repeated.

Assay: not told

| Structure (SMILES) | log partition 1-octanol / water |
| --- | --- |
| COC(=O)C1CC2(CC2)CN1C(C)=O (centres unmarked) | 0.19 log10 |
| COC(=O)C1CC2(CN1C(C)=O)CC2(F)F (centres unmarked) | 0.18 log10 and 0.03 log10 |
